# Source: ChEMBL document CHEMBL1649580, “Mosaic penicillin-binding protein 2 in Neisseria gonorrhoeae isolates collected in 2008 in San Francisco, California” (2009)
# Experiments:
# Assay type in all cases: functional
# [1] = system: Neisseria gonorrhoeae; test: Antibacterial activity against Neisseria gonorrhoeae isolate SM1 expressing SF-A mosaic penA allele by agar dilution method
# [2] = system: Neisseria gonorrhoeae; test: Antibacterial activity against Neisseria gonorrhoeae isolate SM2 expressing SF-A mosaic penA allele by agar dilution method
# [3] = system: Neisseria gonorrhoeae; test: Antibacterial activity against Neisseria gonorrhoeae isolate SM3 expressing SF-A mosaic penA allele by agar dilution method
# [4] = system: Neisseria gonorrhoeae; test: Antibacterial activity against Neisseria gonorrhoeae isolate SM4 expressing SF-B mosaic penA allele by agar dilution method
# [5] = system: Neisseria gonorrhoeae; test: Antibacterial activity against Neisseria gonorrhoeae isolate SM5 expressing SF-B mosaic penA allele by agar dilution method
# [6] = system: Neisseria gonorrhoeae; test: Antibacterial activity against Neisseria gonorrhoeae isolate SW1 expressing nonmosaic penA allele by agar dilution method
# [7] = system: Neisseria gonorrhoeae; test: Antibacterial activity against Neisseria gonorrhoeae isolate SW2 expressing nonmosaic penA allele by agar dilution method
Structure (SMILES),MIC [1] [µg/mL],MIC [2] [µg/mL],MIC [3] [µg/mL],MIC [4] [µg/mL],MIC [5] [µg/mL],MIC [6] [µg/mL],MIC [7] [µg/mL]
C=CC1=C(C(=O)O)N2C(=O)[C@@H](NC(=O)/C(=N\OCC(=O)O)c3csc(N)n3)[C@H]2SC1 [CEFIXIME],0.25,0.125,0.25,≤ 0.008,0.015,≤ 0.008,0.015
CO/N=C(\C(=O)N[C@@H]1C(=O)N2C(C(=O)O)=C(CSc3nc(=O)c(O)nn3C)CS[C@H]12)c1csc(N)n1 [CEFTRIAXONE],0.06,0.06,0.03,≤ 0.008,≤ 0.008,≤ 0.008,≤ 0.008
COCC1=C(C(=O)O)N2C(=O)[C@@H](NC(=O)/C(=N\OC)c3csc(N)n3)[C@H]2SC1 [CEFPODOXIME],1,0.5,1,0.06,0.25,0.015,0.03
